# Columns and labels:
# Type in all cases: cell-based, human
# LN-hPSCs [1] = experiment: Immunofluorescence staining after WNT activation; details: upon WNT activation with CHIR
# Method: (§1) Signaling pathways analysis—hPSCs were cultured on LN111 for 2 days in complete medium, and then for additional 3-5 days in a medium+/−FGF2 in the presence of the following small molecules: PD032590 1 μM (Peprotech), LY294002 10 μM, SB431542 10 μM, CHIR99021 3 μM (all from Cayman Chemical, Michigan, USA), XAV939 2.5 μM (Peprotech), BMP4 50 ng/ml (Biogems-Peprotech).
# Immunofluorescence staining: 4-6 day hESC colonies were fixed with 4% paraformaldehyde for 20 min at RT, permeabilized and blocked with 0.2% Triton X100 (Sigma-Aldrich), 5% normal goat/donkey serum (Biological industries, Beit Haemek, Israel) in PBS for 45 min, and incubated 1 hour at RT with the following primary antibodies: mouse IgG2b anti-human Oct4 (1:50; Cat. No. SC5279, Santa Cruz Biotechnology Inc., USA), goat polyclonal IgG anti-human FGF5 (1:250; Cat. No. AF-237-NA, R&D Systems, Minneapolis, Minn., USA), Rabbit polyclonal IgG anti-GFP (1:250; Cat. No. A11122, Invitrogen), goat polyclonal IgG anti-Brachyury (1:150; Cat. No. AF-2085, R&D Systems), and goat polyclonal IgG anti-human OTX2 (1:50; Cat. No. AF-1979, R&D Systems). […]
# LN-hPSCs [2] = experiment: Signaling pathways analysis, Real-Time PCR of marker expression
# Method: as §1
# (§2) Real Time PCR analysis—A relative gene expression quantitation assay was performed by amplification of 50 ng cDNA by Real Time PCR, using ABI Prism 7900HT Sequence Detection System (Applied Biosystems (ABI), Foster City, Calif.), specific TaqMan® Gene Expression Assays and TaqMan Fast Universal PCR master Mix. Human β-glucuronidase (gusB) or human β-actin (actB) were used as endogenous gene references. Data was analyzed using the RQ Manager Software v1.2 (ABI). For global expression analysis of pluripotency and differentiation associated genes, 200 ng cDNA were subjected to Real Time PCR amplification using Applied Biosystems® TaqMan® Human Stem Cell Pluripotency Array (Cat. No. 4385344), and Taqman Gene Expression Master Mix. Array data was analyzed using the DataAssist Software v2.0 (ABI).
# (§3) Signaling pathways analysis-hPSCs were cultured on LN111 for 2 days in complete medium, and then for additional 3-5 days in a medium+/−FGF2 in the presence of the following small molecules: PD032590 1 μM (Peprotech), LY294002 10 μM, SB431542 10 μM, CHIR99021 3 μM (all from Cayman Chemical, Michigan, USA), XAV939 2.5 μM (Peprotech), BMP4 50 ng/ml (Biogems-Peprotech).
# as §2, with “of 25-50” for “of 50”, “by Real-Time” for “by Real Time”, “and TaqMan®” for “and TaqMan”, “PCR Master Mix (All from Invitrogen).” for “PCR master Mix.”, “to Real-time” for “to Real Time”
# LN-hPSCs [3] = experiment: Signaling pathways analysis, phase-contrast colony morphology
# Method: as §1, §3
# LN-hPSCs [4] = experiment: FACS analysis of pluripotency cell-surface markers; details: basic medium supplemented with FGF2, XAV939 2.5 μM
# Method: Signaling pathways analysis—hPSCs were cultured on LN111 for 2 days in complete medium, and then for additional 3-5 days in a medium+/−FGF2 in the presence of the following small molecules: PD032590 1 μM (Peprotech), LY294002 10 μM, SB431542 10 μM, CHIR99021 3 μM (all from Cayman Chemical, Michigan, USA), XAV939 2.5 μM (Peprotech), BMP4 50 ng/ml (Biogems-Peprotech). FACS analysis—FACS analyses were performed using the following primary antibodies: mouse IgM anti-TRA-1-60 (1:100; mab4360, R&D), and mouse IgM anti-TRA-1-81 (1:100; mab4381, R&D), and Rat IgM anti-SSEA-3. Staining with respective isotype control antibodies (all from eBiosciences) served as controls. Detection of primary antibodies was performed using the following secondary antibodies: FITC-conjugated Polyclonal Goat Anti-Mouse Immunoglobulins (1:100; Dako, Glostrup, Denmark), APC-conjugated Goat anti-Mouse IgM/G (1:200; Cat. No. 1020-11, SouthernBiotech, Birmingham, Ala., USA), and APC-conjugated anti-Rat (1:200; eBioscience). FACS analysis was performed on a FACScalibur system (Becton-Dickinson, San Jose, Calif.) using the Cellquest software. A detailed FACS procedure is described elsewhere. FACS analysis—FACS analyses for pluripotency marker expression were performed using mouse anti-TRA-1-60 (1:100; mab4360, R&D), and mouse anti-TRA-1-81 (1:100; mab4381, R&D). […]
# hPSCs = experiment: Undifferentiated propagation and PGC differentiation of hPSCs on laminin; details: HES-1 hPSCs
# Method: LN-hPSCs were cultured on mouse LN111, 3-D Culture Matrix Laminin I (CULTREX, TREVIGEN, #3446-005-01, Gaithersburg, Md., USA). 0.175 ml diluted LN111 (1:14 to a coating concentration of 0.43 mg/ml) was used to coat a well of a 6-well culture dish, leaving a margin of 2-3 mm at the well edge (a final concentration of ˜8 microgram/cm^2). The coated dishes were incubated from 4 hours to 4 days, at 37° C., and washed with PBS before use. LN-hPSCs were cultured in a medium composed of DMEM/F12, B27 supplement (1:50), N2 supplement (1:100), 2 mM L-glutamine, 50 units/ml penicillin, 50 μg/ml streptomycin (all from Invitrogen), and supplemented daily with 20 ng/ml FGF2 (Peprotech). Cells were passaged every 5-6 days using 1.5 mg/ml collagenase type IV (Invitrogen). 5 μM ROCK inhibitor (Y-27632, Peprotech) was added for the first day after passaging.
# hPSCs were cultured on human recombinant LN521 (BIOLAMINA, Sundbyberg, Sweden). Coating of culture dishes with hrLN521 was performed according to the manufacturer's instructions (Coating concentration ˜0.45 microgram/cm^2). Cells were cultured in the same medium used for culturing LN-hPSCs, and passaged with collagenase type IV.
# PGC differentiation of hPSCs in suspension—LN-hPSCs and hPSCs cultured on hrLN-521 were dissociated into a single-cell suspension using TrypLE Select Enzyme (Invitrogen). Primed hPSCs were first dissociated from the MEF feeders by treatment with collagenase type IV, followed by dissociation into single cells by TrypLE Select Enzyme. 2000-3000 cells were seeded into a microwell of AggreWell™800 24-well plate (STEMCELL Technologies), and cultured as EBs in suspension, in PGCLC differentiation medium as described elsewhere (Irie et al., 2015).
# [5] = medium depleted for FGF2, in the presence of the inhibitor, five days
compound,measurement,setting,value
"Cc1c[nH]c(-c2cnc(NCCNc3ccc(C#N)cn3)nc2-c2ccc(Cl)cc2Cl)n1 [CHIR, CHIR99021]",T-positive cells (immunostaining),LN-hPSCs [1],expressed in the majority of the cells
same,"expression of PS and mesendodermal markers T, SOX17, and GSC",LN-hPSCs [2]; 3 days in the presence of CHIR,up-regulation
same,"expression of core pluripotency TFs Oct4, Nanog and SOX2 as well as OTX2",LN-hPSCs [2]; 3 days in the presence of CHIR,down-regulation
same,expression of early ecdodermal marker PAX6,LN-hPSCs [2]; 3 days in the presence of CHIR,down-regulated
same,LN-hPSC colony morphology,LN-hPSCs [3]; 3 days in the presence of CHIR,appeared differentiated
O=C(NOC[C@H](O)CO)c1ccc(F)c(F)c1Nc1ccc(I)cc1F [PD032590],Oct4 and Nanog expression levels,LN-hPSCs [2]; [5],significant down-regulation
same,differentiation as evidenced by changes in cell morphology,LN-hPSCs [3]; [5],Differentiation was observed
NC(=O)c1ccc(-c2nc(-c3ccc4c(c3)OCO4)c(-c3ccccn3)[nH]2)cc1 [SB431542],Oct4 and Nanog expression levels,LN-hPSCs [2]; FGF2 depleted from the medium,strongly reduced
same,Nanog expression,"LN-hPSCs [2]; medium containing FGF2, 5 d",drastically reduced
same,Oct4 levels,"LN-hPSCs [2]; medium containing FGF2, 5 d",moderately down-regulated
same,colony morphology,LN-hPSCs [3]; FGF2 depleted from the medium,the colonies including the margins differentiated
same,colony morphology,"LN-hPSCs [3]; medium containing FGF2, 5 d",appeared differentiated
Oc1nc(-c2ccc(C(F)(F)F)cc2)nc2c1CSCC2 [XAV939],percentages of cells expressing TRA-1-60,LN-hPSCs [4],did not affect
same,LN-hPSC colonies morphology,"LN-hPSCs [3]; basic medium supplemented with FGF2, XAV939 2.5 μM",did not affect
"BMP4: BMP4 50 ng/ml (Biogems-Peprotech), conserved role in germ cell specification",expression of early PGC TFs PRDM1 (BLIMP1) and TFAP2C,LN-hPSCs [2]; BMP4 treatment,induced the expression
same,expression of formative pluripotency TFs OTX2 and FOXD3,LN-hPSCs [2]; BMP4 treatment,down-regulation
"hrLN521: human recombinant LN521 (BIOLAMINA), coating of culture dishes",competence to initiate germ cell specification,hPSCs,competent to initiate germ cell specification
same,undifferentiated propagation of hPSCs expressing markers of pluripotency and early post-implantation epiblast,hPSCs,supports the undifferentiated propagation

# From patent US12467038B2, “Methods of culturing human pluripotent cells” (Hadasit Medical Research Services and Development Ltd., priority 2019, dated 2025)
